Reference: patent US10364245B2 (CHIESI FARMACEUTICI S.p.A., priority 2017, dated 2019)
Counter-ions that a name gives are not always drawn.

Key:
p38 alpha = target: T1, p38 alpha (Homo sapiens, UniProt Q16539); test: P38 alpha enzyme inhibition assay (Alphascreen kinase activity assay); format: biochemical; details: 100 pM p38 alpha, 2 hours preincubation at 25° C., 250 μM ATP, ATF-2 fusion protein; read-out: p38α inhibition
T1 construct: purchased Invitrogen PV3304
How it was run: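 Phosphorylation of ATF-2 fusion protein (0.3 μg/ml) read by AlphaScreen with anti-phospho-ATF2 antibody after 1 h kinase reaction at 25 °C, initiated by 250 μM ATP. Compounds first incubated 2 h at 25 °C with 100 pM p38 alpha in pH 7.5 HEPES buffer, 1% DMSO. IC50 derived from concentration-response data.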

[1] = test system: Peripheral Blood Mononuclear Cells (PBMCs), TNFα release; test: LPS-stimulated PBMC TNFα release assay; format: cell-based; details: human PBMC, LPS (10 ng/ml), 18 h, compound 1 h before LPS; read-out: LPS-stimulated PBMC TNFα release inhibition
How it was run: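 TNFα in cell-free supernatant, read on MSD plates, gave % inhibition curves and IC50 (≥3 separate experiments). Healthy-donor PBMCs had 1 h compound exposure at 37 °C in 1% FBS medium, then 18 h stimulation with 10 ng/ml LPS, after a 3 h serum-free rest.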

T1 sequence (Q16539 whole entry, the tested form may be a part): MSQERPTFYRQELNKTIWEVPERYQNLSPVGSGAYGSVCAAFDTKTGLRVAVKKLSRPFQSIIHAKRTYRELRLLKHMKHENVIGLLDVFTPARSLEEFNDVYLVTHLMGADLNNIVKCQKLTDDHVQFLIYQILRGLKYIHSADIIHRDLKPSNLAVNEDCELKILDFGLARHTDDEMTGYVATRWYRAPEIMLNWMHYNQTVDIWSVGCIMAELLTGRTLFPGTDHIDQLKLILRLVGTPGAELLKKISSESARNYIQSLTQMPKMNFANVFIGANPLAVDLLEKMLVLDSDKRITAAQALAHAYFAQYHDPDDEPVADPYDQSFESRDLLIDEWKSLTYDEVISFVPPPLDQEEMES

Row | Structure (SMILES) | IC50 (p38 alpha) | IC50 [1]
1 | CCC(CC)c1nnc2ccc(O[C@@H]3CC[C@H](NC(=O)Nc4cc(C(C)(C)C)nc(C(=O)NCCO)n4)c4ccccc43)cn12 [Example 72, 4-(tert-butyl)-N-(2-hydroxyethyl)-6-(3-((1S,4R)-4-((3-(pentan-3-yl)-[1,2,4]triazolo[4,3-a]pyridin-6-yl)oxy)-1,2,3,4-tetrahydronaphthalen-1-yl)ureido)pyrimidine-2-carboxamide] | < 1 nM | 1 to 5 nM
2 | CC[C@H](C)c1nnc2ccc(O[C@@H]3CC[C@H](NC(=O)Nc4cc(C(=O)NCCN(C)C)nc(C(C)(C)C)c4)c4ccccc43)cn12 [Example 201, 6-(tert-Butyl)-4-(3-((1S,4R)-4-((3-((S)-sec-butyl)-[1,2,4]triazolo[4,3-a]pyridin-6-yl)oxy)-1,2,3,4-tetrahydronaphthalen-1-yl)ureido)-N-(2-(dimethylamino)ethyl)-picolinamide formate salt] | < 1 nM | 1 to 5 nM
3 | CC[C@H](C)c1nnc2ccc(O[C@@H]3CC[C@H](NC(=O)Nc4cc(C(C)(C)C)nc(C(=O)NCCN5CC(OC)C5)n4)c4ccccc43)cn12 [Example 169, 4-(tert-butyl)-6-(3-((1S,4R)-4-((3-((S)-sec-butyl)-[1,2,4]triazolo[4,3-a]pyridin-6-yl)oxy)-1,2,3,4-tetrahydronaphthalen-1-yl)ureido)-N-(2-(3-methoxyazetidin-1-yl)ethyl)pyrimidine-2-carboxamide] | < 1 nM | 1 to 5 nM
4 | CC(C)(C)c1cc(NC(=O)N[C@H]2CC[C@@H](Oc3ccc4nnc(C(C)(C)C)n4c3)c3ccccc32)nc(C(=O)NCCN(CCO)CCO)n1 [Example 120, N-(2-(bis(2-hydroxyethyl)amino)ethyl)-4-(tert-butyl)-6-(3-((1S,4R)-4-((3-(tert-butyl)-[1,2,4]triazolo[4,3-a]pyridin-6-yl)oxy)-1,2,3,4-tetrahydronaphthalen-1-yl)ureido)pyrimidine-2-carboxamide] | < 1 nM | > 5 nM
5 | CCN(C)CCNC(=O)c1nc(NC(=O)N[C@H]2CC[C@@H](Oc3ccc4nnc(N(CC)CC)n4c3)c3ccccc32)cc(C(C)(C)C)n1 [Example 11, 4-(tert-Butyl)-6-(3-((1S,4R)-4-((3-(diethylamino)-[1,2,4]triazolo[4,3-a]pyridin-6-yl)oxy)-1,2,3,4-tetrahydronaphthalen-1-yl)ureido)-N-(2-(ethyl(methyl)amino)ethyl)pyrimidine-2-carboxamide] | < 1 nM | 1 to 5 nM
6 | CN1CCC[C@]1(C)c1nnc2ccc(O[C@@H]3CC[C@H](NC(=O)Nc4cc(C(C)(C)C)cc(C#N)n4)c4ccccc43)cn12 [Example 39, 1-(4-(tert-Butyl)-6-cyanopyridin-2-yl)-3-((1S,4R)-4-((3-((R)-1,2-dimethylpyrrolidin-2-yl)-[1,2,4]triazolo[4,3-a]pyridin-6-yl)oxy)-1,2,3,4-tetrahydronaphthalen-1-yl)urea] | 1 to 10 nM | < 1 nM
7 | CN(CCO)CCNC(=O)c1nc(NC(=O)N[C@H]2CC[C@@H](Oc3ccc4nnc(C5(C)CC5)n4c3)c3ccccc32)cc(C(C)(C)C)n1 [Example 145, 4-(tert-butyl)-N-(2-((2-hydroxyethyl)(methyl)-amino)ethyl)-6-(3-((1S,4R)-4-((3-(1-methylcyclopropyl)-[1,2,4]triazolo[4,3-a]pyridin-6-yl)oxy)-1,2,3,4-tetrahydronaphthalen-1-yl)ureido)pyrimidine-2-carboxamide] | < 1 nM | > 5 nM
8 | CC(C)(C)c1cc(NC(=O)N[C@H]2CC[C@@H](Oc3ccc4nnc(C5(C)CCCC5)n4c3)c3ccccc32)nc(C(=O)NCCN2CCCOCC2)n1 [Example 182, N-(2-(1,4-oxazepan-4-yl)ethyl)-4-(tert-butyl)-6-(3-((1S,4R)-4-((3-(1-methylcyclopentyl)-[1,2,4]triazolo[4,3-a]pyridin-6-yl)oxy)-1,2,3,4-tetrahydronaphthalen-1-yl)ureido)pyrimidine-2-carboxamide] | < 1 nM | < 1 nM
9 | CCN(CC)c1nnc2ccc(O[C@@H]3CC[C@H](NC(=O)Nc4cc(C(C)(C)C)nc(C(=O)NCC(C)(C)N(C)C)n4)c4ccccc43)cn12 [Example 143, 4-(tert-butyl)-6-(3-((1S,4R)-4-((3-(diethylamino)-[1,2,4]triazolo[4,3-a]pyridin-6-yl)oxy)-1,2,3,4-tetrahydronaphthalen-1-yl)ureido)-N-(2-(dimethylamino)-2-methylpropyl)pyrimidine-2-carboxamide] | < 1 nM | 1 to 5 nM
10 | COc1ncc(C(C)(C)C)cc1NC(=O)N[C@H]1CC[C@@H](Oc2ccc3nnc([C@]4(C)CCCN4C)n3c2)c2ccccc21 [Example 52, 1-(5-(tert-Butyl)-2-methoxypyridin-3-yl)-3-((1S,4R)-4-((3-((S)-1,2-dimethylpyrrolidin-2-yl)-[1,2,4]triazolo[4,3-a]pyridin-6-yl)oxy)-1,2,3,4-tetrahydronaphthalen-1-yl)urea] | 1 to 10 nM | < 1 nM
11 | COCC(C)(C)c1nnc2ccc(O[C@@H]3CC[C@H](NC(=O)Nc4cc(C(C)(C)C)nc(C(=O)NCC5(N(C)C)CCCC5)n4)c4ccccc43)cn12 [Example 154, 4-(tert-butyl)-N-((1-(dimethylamino)cyclopentyl)methyl)-6-(3-((1S,4R)-4-((3-(1-methoxy-2-methylpropan-2-yl)-[1,2,4]triazolo[4,3-a]pyridin-6-yl)oxy)-1,2,3,4-tetrahydronaphthalen-1-yl)ureido)pyrimidine-2-carboxamide] | < 1 nM | > 5 nM
12 | COCC(C)(C)c1nnc2ccc(O[C@@H]3CC[C@H](NC(=O)Nc4cc(C(C)(C)C)nc(C(=O)NCC5(N(C)C)CCC5)n4)c4ccccc43)cn12 [Example 158, 4-(tert-Butyl)-N-((1-(dimethylamino)-cyclobutyl)methyl)-6-(3-((1S,4R)-4-((3-(1-methoxy-2-methylpropan-2-yl)-[1,2,4]triazolo[4,3-a]pyridin-6-yl)oxy)-1,2,3,4-tetrahydronaphthalen-1-yl)ureido)pyrimidine-2-carboxamide formate salt] | < 1 nM | 1 to 5 nM
13 | CCC(CC)c1nnc2ccc(O[C@@H]3CC[C@H](NC(=O)Nc4cc(C(C)(C)C)nc(C(=O)NCC(C)(C)N5CC(OC)C5)n4)c4ccccc43)cn12 [Example 174, 4-(tert-butyl)-N-(2-(3-methoxyazetidin-1-yl)-2-methylpropyl)-6-(3-((1S,4R)-4-((3-(pentan-3-yl)-[1,2,4]triazolo[4,3-a]pyridin-6-yl)oxy)-1,2,3,4-tetrahydronaphthalen-1-yl)ureido)pyrimidine-2-carboxamide formate salt] | < 1 nM | 1 to 5 nM
14 | CN(C)CCC(=O)NCc1nc(NC(=O)N[C@H]2CC[C@@H](Oc3ccc4nnc(C(C)(C)C)n4c3)c3ccccc32)cc(C(C)(C)C)n1 [Example 127, N-((4-(tert-butyl)-6-(3-((1S,4R)-4-((3-(tert-butyl)-[1,2,4]triazolo[4,3-a]pyridin-6-yl)oxy)-1,2,3,4-tetrahydronaphthalen-1-yl)ureido)pyrimidin-2-yl)methyl)-3-(dimethylamino)-propanamide] | < 1 nM | > 5 nM
15 | CN(C)CCNC(=O)c1nc(NC(=O)N[C@H]2CC[C@@H](Oc3ccc4nnc(C5(C)CC5)n4c3)c3ccccc32)cc(C(C)(C)C)n1 [Example 32, 4-(tert-Butyl)-N-(2-(dimethylamino)ethyl)-6-(3-((1S,4R)-4-((3-(1-methylcyclopropyl)-[1,2,4]triazolo[4,3-a]pyridin-6-yl)oxy)-1,2,3,4-tetrahydronaphthalen-1-yl)ureido)pyrimidine-2-carboxamide] | < 1 nM | > 5 nM
16 | CC(C)(C)c1cc(NC(=O)N[C@H]2CC[C@@H](Oc3ccc4nnc(C(C)(C)C)n4c3)c3ccccc32)cc(C(=O)NCCN2CC[C@H](O)C2)n1 [Example 195, 6-(tert-butyl)-4-(3-((1S,4R)-4-((3-(tert-butyl)-[1,2,4]triazolo[4,3-a]pyridin-6-yl)oxy)-1,2,3,4-tetrahydronaphthalen-1-yl)ureido)-N-(2-((S)-3-hydroxypyrrolidin-1-yl)ethyl)picolinamide] | < 1 nM | > 5 nM
17 | CCOC(=O)c1nc(NC(=O)N[C@H]2CC[C@@H](Oc3ccc4nnc([C@]5(C)CCCN5C)n4c3)c3ccccc32)cc(C(C)(C)C)n1 [Example 36, Ethyl 4-(tert-butyl)-6-(3-((1S,4R)-4-((3-((S)-1,2-dimethylpyrrolidin-2-yl)-[1,2,4]triazolo[4,3-a]pyridin-6-yl)oxy)-1,2,3,4-tetrahydronaphthalen-1-yl)ureido)pyrimidine-2-carboxylate] | 1 to 10 nM | < 1 nM
